Tests used:
[1] = compound: NC(=O)CCCCC1CCSS1 [lipoamide]; experiment: thermal stability z-score vs DMSO; higher = more thermally stabilized by treatment; conditions: HeLa, lipoamide concentration 100 µM
Experimental: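 Cellular thermal proteome profiling in HeLa cells. Cells were treated with 100 µM lipoamide for 1 h, with or without 1 mM arsenate for a further 1 h, then heated to ten temperatures (37-66.3 °C), and soluble protein was quantified by TMT mass spectrometry relative to 0.1% DMSO controls. The thermal stability score (sum of log2 fold changes minus the abundance score) was transformed to a z-score; mean of n = 3 experiments.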

[2] = compound: O=[As]([O-])(O)O.[K+] [potassium arsenate]; experiment: as above; conditions: HeLa; arsenate concentration 1 mM
Experimental: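 Cellular thermal proteome profiling in HeLa cells treated with 1 mM arsenate for 1 h (DMSO pretreatment), heated to ten temperatures (37-66.3 °C). Soluble protein was quantified by TMT mass spectrometry relative to DMSO controls; the thermal stability score was transformed to a z-score; mean of n = 3 experiments.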

[3] = arsenate co-treatment: 1 mM arsenate 1 h
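Further: each temperature applied for 3 min, abundance score taken as mean log2 fold change at the two lowest temperatures, z-score obtained by mean subtraction and division by SD.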

UniProt Q15393, sequence (Q15393 whole entry): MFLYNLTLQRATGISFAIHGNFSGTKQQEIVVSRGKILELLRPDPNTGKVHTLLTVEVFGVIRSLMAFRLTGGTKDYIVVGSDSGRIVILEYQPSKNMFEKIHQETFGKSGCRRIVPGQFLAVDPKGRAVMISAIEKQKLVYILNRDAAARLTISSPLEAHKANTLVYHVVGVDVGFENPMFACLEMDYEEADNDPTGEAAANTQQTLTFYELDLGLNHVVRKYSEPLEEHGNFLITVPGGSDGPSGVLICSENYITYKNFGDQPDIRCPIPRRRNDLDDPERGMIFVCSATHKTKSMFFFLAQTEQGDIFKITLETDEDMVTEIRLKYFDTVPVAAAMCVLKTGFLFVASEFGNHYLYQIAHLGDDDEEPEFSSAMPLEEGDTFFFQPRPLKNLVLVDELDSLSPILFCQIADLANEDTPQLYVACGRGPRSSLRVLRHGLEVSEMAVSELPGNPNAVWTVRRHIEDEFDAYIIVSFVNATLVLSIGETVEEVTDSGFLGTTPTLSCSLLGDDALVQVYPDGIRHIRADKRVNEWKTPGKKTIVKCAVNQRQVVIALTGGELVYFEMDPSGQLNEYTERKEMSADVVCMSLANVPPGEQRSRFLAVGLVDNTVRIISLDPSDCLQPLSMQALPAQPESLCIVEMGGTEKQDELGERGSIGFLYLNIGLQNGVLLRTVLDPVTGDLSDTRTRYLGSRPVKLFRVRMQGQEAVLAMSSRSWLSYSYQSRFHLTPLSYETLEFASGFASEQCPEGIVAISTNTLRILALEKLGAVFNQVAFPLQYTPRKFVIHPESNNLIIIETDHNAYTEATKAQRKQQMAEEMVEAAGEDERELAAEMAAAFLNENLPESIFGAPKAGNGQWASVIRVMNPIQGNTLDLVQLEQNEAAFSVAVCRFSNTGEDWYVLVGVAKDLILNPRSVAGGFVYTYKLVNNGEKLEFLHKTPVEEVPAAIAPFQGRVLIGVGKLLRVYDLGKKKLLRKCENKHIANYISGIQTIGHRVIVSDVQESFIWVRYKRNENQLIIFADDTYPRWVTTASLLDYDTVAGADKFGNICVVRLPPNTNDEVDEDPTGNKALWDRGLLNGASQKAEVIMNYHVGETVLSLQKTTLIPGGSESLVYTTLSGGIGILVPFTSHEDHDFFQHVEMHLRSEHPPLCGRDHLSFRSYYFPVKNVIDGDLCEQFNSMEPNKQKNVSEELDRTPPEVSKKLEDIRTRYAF
UniProt Q9NQ88, sequence (Q9NQ88 whole entry): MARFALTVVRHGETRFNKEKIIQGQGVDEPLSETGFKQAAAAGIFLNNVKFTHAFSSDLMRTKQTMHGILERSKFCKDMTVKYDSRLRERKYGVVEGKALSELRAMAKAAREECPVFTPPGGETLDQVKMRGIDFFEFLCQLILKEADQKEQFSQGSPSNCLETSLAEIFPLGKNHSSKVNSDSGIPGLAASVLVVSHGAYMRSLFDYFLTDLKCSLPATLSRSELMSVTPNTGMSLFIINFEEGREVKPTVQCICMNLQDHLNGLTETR
UniProt Q14157, sequence (Q14157 whole entry): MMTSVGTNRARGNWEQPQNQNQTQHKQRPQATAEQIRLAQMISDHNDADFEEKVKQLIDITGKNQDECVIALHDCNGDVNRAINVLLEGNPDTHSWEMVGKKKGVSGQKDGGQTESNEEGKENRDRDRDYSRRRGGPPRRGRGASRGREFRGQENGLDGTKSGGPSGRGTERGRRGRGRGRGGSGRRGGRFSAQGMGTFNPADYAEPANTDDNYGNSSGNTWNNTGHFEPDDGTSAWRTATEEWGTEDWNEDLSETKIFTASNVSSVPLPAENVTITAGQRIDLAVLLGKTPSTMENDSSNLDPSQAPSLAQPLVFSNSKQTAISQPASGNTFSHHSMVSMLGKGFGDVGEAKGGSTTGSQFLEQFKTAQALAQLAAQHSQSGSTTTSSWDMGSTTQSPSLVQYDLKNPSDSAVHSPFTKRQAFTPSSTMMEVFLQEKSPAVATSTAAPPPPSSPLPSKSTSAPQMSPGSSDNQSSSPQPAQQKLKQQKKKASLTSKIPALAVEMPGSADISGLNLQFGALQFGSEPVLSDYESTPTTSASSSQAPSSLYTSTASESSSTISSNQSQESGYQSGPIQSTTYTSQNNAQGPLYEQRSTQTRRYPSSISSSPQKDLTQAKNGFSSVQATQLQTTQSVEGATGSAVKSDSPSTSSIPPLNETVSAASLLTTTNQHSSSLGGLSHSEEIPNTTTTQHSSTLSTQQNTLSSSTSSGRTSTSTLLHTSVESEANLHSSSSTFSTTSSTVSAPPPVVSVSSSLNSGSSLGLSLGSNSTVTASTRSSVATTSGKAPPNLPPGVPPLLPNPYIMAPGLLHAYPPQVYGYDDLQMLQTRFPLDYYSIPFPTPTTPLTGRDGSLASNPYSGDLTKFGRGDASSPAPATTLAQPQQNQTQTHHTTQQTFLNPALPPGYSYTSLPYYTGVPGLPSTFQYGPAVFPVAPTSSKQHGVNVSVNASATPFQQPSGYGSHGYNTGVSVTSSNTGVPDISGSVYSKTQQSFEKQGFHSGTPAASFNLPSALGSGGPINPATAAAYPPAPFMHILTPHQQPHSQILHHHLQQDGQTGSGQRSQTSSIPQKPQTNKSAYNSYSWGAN
UniProt Q9UET6, sequence (Q9UET6 whole entry): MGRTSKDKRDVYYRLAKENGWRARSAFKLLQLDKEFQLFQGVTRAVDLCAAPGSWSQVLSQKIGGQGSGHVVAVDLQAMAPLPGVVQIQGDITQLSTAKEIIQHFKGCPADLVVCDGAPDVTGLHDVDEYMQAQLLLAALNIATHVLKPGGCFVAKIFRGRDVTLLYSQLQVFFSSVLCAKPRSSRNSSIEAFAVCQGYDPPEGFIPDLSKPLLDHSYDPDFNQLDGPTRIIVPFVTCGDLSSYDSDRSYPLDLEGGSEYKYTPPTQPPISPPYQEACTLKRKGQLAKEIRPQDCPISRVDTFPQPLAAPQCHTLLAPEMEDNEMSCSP
UniProt P09874, sequence (P09874 whole entry): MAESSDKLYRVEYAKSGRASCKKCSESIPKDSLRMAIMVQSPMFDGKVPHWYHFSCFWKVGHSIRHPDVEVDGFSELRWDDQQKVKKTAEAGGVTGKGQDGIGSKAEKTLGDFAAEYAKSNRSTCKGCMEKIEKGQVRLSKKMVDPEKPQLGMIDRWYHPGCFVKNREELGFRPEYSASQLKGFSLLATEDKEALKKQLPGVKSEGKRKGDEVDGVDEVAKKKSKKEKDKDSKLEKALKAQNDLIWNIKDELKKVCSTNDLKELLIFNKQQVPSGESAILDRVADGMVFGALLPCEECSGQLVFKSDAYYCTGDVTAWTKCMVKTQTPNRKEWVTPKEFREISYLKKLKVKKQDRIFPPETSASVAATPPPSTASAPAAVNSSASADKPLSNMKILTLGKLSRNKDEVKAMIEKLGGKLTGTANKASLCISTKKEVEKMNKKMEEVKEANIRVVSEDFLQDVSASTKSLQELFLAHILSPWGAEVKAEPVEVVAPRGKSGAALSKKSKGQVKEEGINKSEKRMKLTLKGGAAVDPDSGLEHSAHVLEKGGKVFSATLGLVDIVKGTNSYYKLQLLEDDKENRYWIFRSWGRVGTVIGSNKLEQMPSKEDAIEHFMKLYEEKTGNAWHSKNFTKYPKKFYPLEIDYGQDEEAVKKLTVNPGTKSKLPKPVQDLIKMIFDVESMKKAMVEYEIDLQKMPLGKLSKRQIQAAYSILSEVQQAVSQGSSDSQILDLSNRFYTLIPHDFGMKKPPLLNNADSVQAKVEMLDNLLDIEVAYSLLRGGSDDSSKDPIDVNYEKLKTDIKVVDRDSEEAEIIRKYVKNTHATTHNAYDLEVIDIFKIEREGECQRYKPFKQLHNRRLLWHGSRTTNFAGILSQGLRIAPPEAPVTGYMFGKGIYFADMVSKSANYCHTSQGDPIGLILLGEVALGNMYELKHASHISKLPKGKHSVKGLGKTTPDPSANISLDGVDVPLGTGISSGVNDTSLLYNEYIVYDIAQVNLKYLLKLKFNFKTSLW
UniProt Q9BWS9, sequence (Q9BWS9 whole entry): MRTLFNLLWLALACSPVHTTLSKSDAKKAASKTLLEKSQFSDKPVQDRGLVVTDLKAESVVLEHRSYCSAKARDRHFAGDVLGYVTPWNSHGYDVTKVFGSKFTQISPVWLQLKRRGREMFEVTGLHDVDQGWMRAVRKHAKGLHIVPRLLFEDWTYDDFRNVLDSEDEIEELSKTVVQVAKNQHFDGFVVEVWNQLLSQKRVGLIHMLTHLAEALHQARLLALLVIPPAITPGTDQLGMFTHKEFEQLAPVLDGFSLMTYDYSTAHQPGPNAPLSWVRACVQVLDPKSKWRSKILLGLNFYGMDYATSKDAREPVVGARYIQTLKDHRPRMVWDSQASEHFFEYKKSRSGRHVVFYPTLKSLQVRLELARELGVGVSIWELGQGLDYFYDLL
UniProt O75821, sequence (O75821 whole entry): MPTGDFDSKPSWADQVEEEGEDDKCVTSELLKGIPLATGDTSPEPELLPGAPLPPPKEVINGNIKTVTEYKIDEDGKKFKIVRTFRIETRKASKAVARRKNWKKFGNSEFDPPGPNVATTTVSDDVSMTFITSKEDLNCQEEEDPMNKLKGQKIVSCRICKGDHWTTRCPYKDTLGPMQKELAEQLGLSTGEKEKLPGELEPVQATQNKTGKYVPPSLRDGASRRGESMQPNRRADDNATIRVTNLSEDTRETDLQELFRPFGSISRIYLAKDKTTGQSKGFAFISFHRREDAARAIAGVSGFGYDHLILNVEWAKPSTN
UniProt Q14103, sequence (Q14103 whole entry): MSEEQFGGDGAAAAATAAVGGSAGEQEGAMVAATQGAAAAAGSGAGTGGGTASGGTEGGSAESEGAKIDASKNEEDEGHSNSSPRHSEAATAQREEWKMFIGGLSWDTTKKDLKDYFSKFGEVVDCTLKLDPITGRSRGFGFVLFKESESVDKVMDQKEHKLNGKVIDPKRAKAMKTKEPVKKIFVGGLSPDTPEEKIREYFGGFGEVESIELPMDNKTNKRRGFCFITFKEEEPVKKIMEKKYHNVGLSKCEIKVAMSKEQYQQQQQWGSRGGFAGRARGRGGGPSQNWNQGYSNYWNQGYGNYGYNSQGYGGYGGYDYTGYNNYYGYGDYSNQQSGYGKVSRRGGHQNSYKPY

Target | thermal stability z-score [1, 3] | thermal stability z-score ([1]; arsenate co-treatment: none) | thermal stability z-score [2]
SEC24B (UniProt O95487) | -0.766 | -0.328 | 0.116
RAB8B (UniProt Q92930) | 0.327 | 0.127 | -0.115
PTPRF (UniProt P10586) | -0.381 | -0.381 | -0.656
RMND1 (UniProt Q9NWS8) | 0.392 | 0.519 | 0.244
APTX (UniProt Q7Z2E3) | 0.0235 | 0.0974 | -0.253
UBAP2L (UniProt Q14157) | 0.549 | 0.413 | -0.116
DIEXF (UniProt Q68CQ4) | 0.1 | 0.0895 | 0.134
ANXA6 (UniProt P08133) | 3.2 | 3.6 | 2.15
SAP130 (UniProt Q9H0E3) | -0.208 | -0.267 | -0.246
PGM2 (UniProt Q96G03) | -0.0134 | -0.155 | -0.24
THBS1 (UniProt P07996) | -0.588 | -0.841 | -0.825
CCNA2 (UniProt P20248) | 1.41 | 0.18 | 1.25
ADAT2 (UniProt Q7Z6V5) | -0.663 | -0.376 | -0.708
PARP1 (UniProt P09874) | -0.643 | 0.7 | -2.03
SBDS (UniProt Q9Y3A5) | 0.328 | 0.706 | 0.306
ATIC (UniProt P31939) | 0.0982 | -0.0656 | -1.07
UVRAG (UniProt Q9P2Y5) | -0.0868 | -0.247 | -0.352
SUPT6H (UniProt Q7KZ85) | 0.225 | 0.758 | -1
LIPA (UniProt P38571) | -0.674 | -0.352 | 0.119
SREK1 (UniProt Q8WXA9) | 0.0164 | 0.0581 | 0.00931
IGF1R (UniProt P08069) | 0.294 | 0.324 | 0.987
AP2S1 (UniProt P53680) | -0.111 | -0.0691 | 0.767
RBM10 | 3.5 | 2.13 | 1.25
SUCLA2 (UniProt Q9P2R7) | 0.0341 | 0.0719 | -0.411
BCAR3 (UniProt O75815) | -0.0123 | -0.0689 | -0.106
USP4 (UniProt Q13107) | -0.209 | -0.11 | -0.141
RUSC1 (UniProt Q9BVN2) | 0.0753 | 0.00504 | -0.0614
CHID1 (UniProt Q9BWS9) | -3.11 | -1.7 | 1.18

Target | thermal stability z-score [1, 3] | thermal stability z-score ([1]; arsenate co-treatment: none) | thermal stability z-score [2]
ARHGDIA (UniProt P52565) | 0.784 | 0.465 | 0.318
USO1 (UniProt O60763) | 0.293 | 0.095 | 0.146
TIGAR (UniProt Q9NQ88) | -1.91 | 0.677 | 0.655
PNKP (UniProt Q96T60) | -0.0218 | -0.0196 | -0.329
SF3B3 (UniProt Q15393) | 1.49 | 0.828 | -0.681
SLC33A1 (UniProt O00400) | 0.69 | 1.25 | 0.345
CRTC1 (UniProt Q6UUV9) | -0.063 | -0.202 | -0.151
OBSL1 (UniProt O75147) | -0.175 | -0.0603 | -0.307
EIF3G (UniProt O75821) | 0.0353 | -0.0823 | 0.711
PELP1 (UniProt Q8IZL8) | 1.14 | 0.206 | 0.449
RHOC (UniProt P08134) | 0.307 | 0.963 | 0.995
WIPI1 (UniProt Q5MNZ9) | -0.175 | -0.814 | 0.18
SCRIB | -0.00971 | -0.22 | 0.128
HNRNPA2B1 (UniProt P22626) | 0.93 | 0.512 | 0.0566
HSD17B12 (UniProt Q53GQ0) | 0.28 | 0.0767 | 0.614
SETX (UniProt Q7Z333) | -0.122 | -0.0676 | -0.00223
RILP (UniProt Q96NA2) | -0.0778 | 0.284 | 0.0653
GRHPR (UniProt Q9UBQ7) | -0.261 | 0.411 | 1.22
FTSJ1 (UniProt Q9UET6) | -0.787 | -0.171 | -0.793
SLC27A4 (UniProt Q6P1M0) | -0.824 | -0.358 | -0.197
DTX3L (UniProt Q8TDB6) | -0.78 | -0.366 | 0.176
MARS (UniProt P56192) | -1.37 | -0.604 | 0.22
CTDP1 (UniProt Q9Y5B0) | -0.373 | -0.652 | -0.903
HNRNPD (UniProt Q14103) | 0.285 | -0.223 | -0.562
RPIA (UniProt P49247) | 0.704 | 0.8 | 0.27
USP34 (UniProt Q70CQ2) | 0.544 | 0.668 | -0.384
TNFAIP2 (UniProt Q03169) | 0.331 | 0.638 | 0.97

Reference: the supplement of paper PMC12463676, “Small-molecule dissolution of stress granules by redox modulation benefits ALS models” (Nature Chemical Biology, 2025)
